Results from PubChem BioAssay AID248 (DTP/NCI, 2004).
Values joined by “and” are separate entries in the source; they are usually repeats but may differ in a detail not shown here. Identical values can stand only once. Toxic doses and inconclusive results are not listed.

Test system: L1210 leukemia ip in BDF1 mice, survival T/C
Experiment: NCI In Vivo Anticancer Drug Screen. Data for tumor model L1210 Leukemia (intraperitoneal) in B6D2F1 (BDF1) mice
Details: endpoint: mean survival time, higher = longer survival
Summary of the method: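 Tumor was transplanted into mice, which were then dosed with test compound or vehicle alone. Survival was recorded for each group, and the treated figure was expressed relative to the control figure.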

O=C(O)c1[nH]c(=O)[nH]c(=O)c1F
T/C (dose: 0.09 mg/kg/injection, schedule: Q01DX005 (oral), vehicle: saline): 112 % of control | T/C (dose: 0.18 mg/kg/injection, schedule: Q01DX005 (oral), vehicle: saline): 108 % of control | T/C (dose: 0.18 mg/kg/injection, schedule: Q01DX015 (ip), vehicle: saline): 115 % of control | T/C (dose: 0.37 mg/kg/injection, schedule: Q01DX005 (oral), vehicle: saline): 115 % of control | T/C (dose: 0.37 mg/kg/injection, schedule: Q01DX015 (ip), vehicle: saline): 157 % of control | T/C (dose: 0.63 mg/kg/injection, schedule: Q01DX015 (ip), vehicle: carboxymethylcellulose (CMC)): 105 % of control | T/C (dose: 0.75 mg/kg/injection, schedule: Q01DX005 (oral), vehicle: saline): 120 % of control | T/C (dose: 0.75 mg/kg/injection, schedule: Q01DX015 (ip), vehicle: saline): 188 % of control | T/C (dose: 0.75 mg/kg/injection, schedule: Q01DX015 (oral), vehicle: saline): 115 % of control | T/C (dose: 0.75 mg/kg/injection, schedule: Q## X003 (oral), vehicle: saline): 101 % of control | T/C (dose: 0.75 mg/kg/injection, schedule: Q## X024 (oral), vehicle: saline): 112 % of control | T/C (dose: 1.0 mg/kg/injection, schedule: Q01DX009 (ip), vehicle: saline with Tween-80): 114 % of control | T/C (dose: 1.0 mg/kg/injection, schedule: Q01DX009 (ip), vehicle: saline): 113 % of control | T/C (dose: 1.25 mg/kg/injection, schedule: Q01DX009 (ip), vehicle: saline): 97 % of control and 111 % of control | T/C (dose: 1.25 mg/kg/injection, schedule: Q01DX015 (ip), vehicle: carboxymethylcellulose (CMC)): 111 % of control | T/C (dose: 1.3 mg/kg/injection, schedule: Q## X008 (oral), vehicle: saline): 111 % of control | T/C (dose: 1.5 mg/kg/injection, schedule: Q01DX006 (iv), vehicle: saline): 112 % of control | T/C (dose: 1.5 mg/kg/injection, schedule: Q01DX009 (oral), vehicle: saline): 114 % of control | T/C (dose: 1.5 mg/kg/injection, schedule: Q01DX015 (im), vehicle: saline): 117 % of control | T/C (dose: 1.5 mg/kg/injection, schedule: Q01DX015 (sc), vehicle: saline): 120 % of control | T/C (dose: 1.5 mg/kg/injection, schedule: Q## X003 (oral), vehicle: saline): 104 % of control | T/C (dose: 1.5 mg/kg/injection, schedule: Q## X024 (oral), vehicle: saline): 113 % of control | T/C (dose: 2.5 mg/kg/injection, schedule: Q01DX009 (ip), vehicle: saline): 117 % of control | T/C (dose: 2.5 mg/kg/injection, schedule: Q01DX015 (ip), vehicle: carboxymethylcellulose (CMC)): 122 % of control | T/C (dose: 2.6 mg/kg/injection, schedule: Q## X008 (oral), vehicle: saline): 114 % of control | T/C (dose: 3.0 mg/kg/injection, schedule: Q01DX005 (oral), vehicle: saline): 157 % of control | T/C (dose: 3.0 mg/kg/injection, schedule: Q01DX006 (iv), vehicle: saline): 120 % of control | T/C (dose: 3.0 mg/kg/injection, schedule: Q01DX009 (ip), vehicle: saline): 165 % of control | T/C (dose: 3.0 mg/kg/injection, schedule: Q01DX015 (ip), vehicle: saline): 191 % of control | T/C (dose: 3.0 mg/kg/injection, schedule: Q01DX015 (oral), vehicle: saline): 157 % of control | T/C (dose: 3.0 mg/kg/injection, schedule: Q## X003 (oral), vehicle: saline): 103 % of control | T/C (dose: 4.0 mg/kg/injection, schedule: Q01DX009 (ip), vehicle: saline with Tween-80): 161 % of control | T/C (dose: 4.0 mg/kg/injection, schedule: Q01DX009 (ip), vehicle: saline): 165 % of control | T/C (dose: 5.0 mg/kg/injection, schedule: Q01DX009 (ip), vehicle: saline): 155 % of control | T/C (dose: 5.0 mg/kg/injection, schedule: Q01DX015 (ip), vehicle: carboxymethylcellulose (CMC)): 155 % of control | T/C (dose: 5.0 mg/kg/injection, schedule: Q01DX Z (ip), vehicle: methylcellulose (MC)): 119 % of control | T/C (dose: 5.2 mg/kg/injection, schedule: Q## X008 (oral), vehicle: saline): 119 % of control | T/C (dose: 6.0 mg/kg/injection, schedule: Q01DX005 (oral), vehicle: saline): 174 % of control | T/C (dose: 6.0 mg/kg/injection, schedule: Q01DX006 (iv), vehicle: saline): 121 % of control | T/C (dose: 6.0 mg/kg/injection, schedule: Q01DX009 (ip), vehicle: saline): 211 % of control | T/C (dose: 6.0 mg/kg/injection, schedule: Q01DX015 (im), vehicle: saline): 179 % of control | T/C (dose: 6.0 mg/kg/injection, schedule: Q01DX015 (ip), vehicle: saline): 164 % of control | T/C (dose: 6.0 mg/kg/injection, schedule: Q01DX015 (oral), vehicle: saline): 191 % of control | T/C (dose: 6.0 mg/kg/injection, schedule: Q01DX015 (sc), vehicle: saline): 182 % of control | T/C (dose: 6.0 mg/kg/injection, schedule: Q## X003 (oral), vehicle: saline): 113 % of control | T/C (dose: 6.0 mg/kg/injection, schedule: Q## X024 (oral), vehicle: saline): 157 % of control | T/C (dose: 7.0 mg/kg/injection, schedule: Q01DX015 (ip), vehicle: carboxymethylcellulose (CMC)): 189 % of control | T/C (dose: 8.0 mg/kg/injection, schedule: Q01DX009 (ip), vehicle: saline): 188 % of control | T/C (dose: 10.0 mg/kg/injection, schedule: Q01DX009 (ip), vehicle: saline): 188 % of control and 206 % of control | T/C (dose: 10.5 mg/kg/injection, schedule: Q01DX001 (oral), vehicle: saline): 111 % of control | T/C (dose: 11.0 mg/kg/injection, schedule: Q01DX015 (ip), vehicle: carboxymethylcellulose (CMC)): 214 % of control | T/C (dose: 11.0 mg/kg/injection, schedule: Q01DX Z (ip), vehicle: methylcellulose (MC)): 109 % of control | T/C (dose: 12.0 mg/kg/injection, schedule: Q01DX006 (iv), vehicle: saline): 153 % of control | T/C (dose: 12.0 mg/kg/injection, schedule: Q01DX009 (ip), vehicle: saline): 100 % of control and 101 % of control | T/C (dose: 12.0 mg/kg/injection, schedule: Q01DX015 (im), vehicle: saline): 162 % of control | T/C (dose: 12.0 mg/kg/injection, schedule: Q01DX015 (ip), vehicle: saline): 155 % of control | T/C (dose: 12.0 mg/kg/injection, schedule: Q01DX015 (sc), vehicle: saline): 171 % of control | T/C (dose: 12.0 mg/kg/injection, schedule: Q## X024 (oral), vehicle: saline): 154 % of control | T/C (dose: 12.0 mg/kg/injection, schedule: Q## X040 (oral), vehicle: saline): 87 % of control | T/C (dose: 16.0 mg/kg/injection, schedule: Q01DX009 (ip), vehicle: saline): 107 % of control | T/C (dose: 16.0 mg/kg/injection, schedule: Q01DX015 (ip), vehicle: carboxymethylcellulose (CMC)): 183 % of control | T/C (dose: 21.0 mg/kg/injection, schedule: Q01DX001 (oral), vehicle: saline): 106 % of control | T/C (dose: 24.0 mg/kg/injection, schedule: Q01DX009 (ip), vehicle: saline): 110 % of control | T/C (dose: 24.0 mg/kg/injection, schedule: Q01DX009 (oral), vehicle: saline): 112 % of control | T/C (dose: 24.0 mg/kg/injection, schedule: Q01DX015 (im), vehicle: saline): 120 % of control | T/C (dose: 24.0 mg/kg/injection, schedule: Q01DX015 (ip), vehicle: saline): 114 % of control | T/C (dose: 24.0 mg/kg/injection, schedule: Q01DX015 (oral), vehicle: saline): 104 % of control | T/C (dose: 24.0 mg/kg/injection, schedule: Q## X024 (oral), vehicle: saline): 156 % of control | T/C (dose: 32.0 mg/kg/injection, schedule: Q04DX003 (ip), vehicle: saline): 178 % of control | T/C (dose: 48.0 mg/kg/injection, schedule: Q01DX006 (iv), vehicle: saline): 183 % of control | T/C (dose: 48.0 mg/kg/injection, schedule: Q01DX009 (ip), vehicle: saline): 88 % of control | T/C (dose: 48.0 mg/kg/injection, schedule: Q01DX009 (oral), vehicle: saline): 101 % of control | T/C (dose: 48.0 mg/kg/injection, schedule: Q01DX015 (im), vehicle: saline): 95 % of control and 112 % of control | T/C (dose: 48.0 mg/kg/injection, schedule: Q01DX015 (ip), vehicle: carboxymethylcellulose (CMC)): 120 % of control | T/C (dose: 48.0 mg/kg/injection, schedule: Q01DX015 (ip), vehicle: saline): 101 % of control and 114 % of control | T/C (dose: 48.0 mg/kg/injection, schedule: Q01DX015 (oral), vehicle: saline): 97 % of control | T/C (dose: 48.0 mg/kg/injection, schedule: Q01DX015 (sc), vehicle: saline): 106 % of control and 108 % of control | T/C (dose: 48.0 mg/kg/injection, schedule: Q## X003 (oral), vehicle: saline): 158 % of control | T/C (dose: 48.0 mg/kg/injection, schedule: Q## X024 (oral), vehicle: saline): 109 % of control | T/C (dose: 64.0 mg/kg/injection, schedule: Q04DX003 (ip), vehicle: saline): 193 % of control | T/C (dose: 84.0 mg/kg/injection, schedule: Q01DX001 (oral), vehicle: saline): 121 % of control | T/C (dose: 96.0 mg/kg/injection, schedule: Q01DX006 (iv), vehicle: saline): 106 % of control | T/C (dose: 96.0 mg/kg/injection, schedule: Q01DX015 (im), vehicle: saline): 86 % of control | T/C (dose: 96.0 mg/kg/injection, schedule: Q01DX015 (oral), vehicle: saline): 87 % of control | T/C (dose: 96.0 mg/kg/injection, schedule: Q## X024 (oral), vehicle: saline): 98 % of control | T/C (dose: 192.0 mg/kg/injection, schedule: Q01DX006 (iv), vehicle: saline): 104 % of control | T/C (dose: 192.0 mg/kg/injection, schedule: Q01DX015 (oral), vehicle: saline): 87 % of control | T/C (dose: 356.0 mg/kg/injection, schedule: Q## X008 (oral), vehicle: saline): 111 % of control | T/C (dose: 384.0 mg/kg/injection, schedule: Q01DX006 (iv), vehicle: saline): 86 % of control | T/C (dose: 384.0 mg/kg/injection, schedule: Q## X003 (oral), vehicle: saline): 122 % of control | T/C (dose: 712.0 mg/kg/injection, schedule: Q01DX001 (oral), vehicle: saline): 150 % of control | T/C (dose: 768.0 mg/kg/injection, schedule: Q## X003 (oral), vehicle: saline): 108 % of control | T/C (dose: 1000.0 mg/kg/injection, schedule: Q01DX001 (oral), vehicle: saline): 160 % of control | T/C (dose: 1000.0 mg/kg/injection, schedule: Q## X003 (oral), vehicle: saline): 103 % of control
